Biological target: T1, APOL1 G1 Protein (Homo sapiens, UniProt O14791, I384M/S342G)
T1 sequence (O14791 28-398 S342G/I384M): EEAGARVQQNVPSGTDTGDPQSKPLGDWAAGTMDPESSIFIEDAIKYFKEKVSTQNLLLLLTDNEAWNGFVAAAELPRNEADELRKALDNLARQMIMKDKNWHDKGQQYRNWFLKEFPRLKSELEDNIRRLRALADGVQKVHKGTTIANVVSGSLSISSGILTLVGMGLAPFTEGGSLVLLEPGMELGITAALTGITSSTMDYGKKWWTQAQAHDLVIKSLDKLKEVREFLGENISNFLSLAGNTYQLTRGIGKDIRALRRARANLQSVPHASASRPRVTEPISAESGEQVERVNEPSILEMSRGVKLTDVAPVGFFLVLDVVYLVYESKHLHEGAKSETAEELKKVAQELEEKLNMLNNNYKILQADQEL
Assay: Trypanosoma brucei brucei lysis assay using APOL1 recombinant protein (AlamarBlue viability)
Format: cell-based
Settings: Trypanosoma brucei brucei lysis, recombinant APOL1, AlamarBlue; read-out: Trypanosoma Assay (IC50)
Source text: Trypanosoma brucei brucei is a blood stream parasite to which human, gorillas and baboon are immune due to the presence of the APOL1 protein in their HDL particles. The protein is uptaken by the parasite via the TbHpHb receptor located in its flagellar pocket and is bonded by the Hpr protein contained in the HDL particles which triggers the receptor endocytosis by the parasite.
Following endocytosis, the formed vesicle containing the HDL particle matures from early to late endosome, and subsequently to lysosome. The concomitant pH change in the lumen of the vesicle triggers the insertion of the APOL1 protein into the membrane of the late endosome/lysosome and hereby triggers lysosomal membrane premeabilisation and as a further downstream event, trypanosome lysis. Trypanosoma brucei brucei is sensitive to lysis by all three APOL1 variants (G0, G1, and G2).
The Trypanosoma brucei brucei lysis assay is a lysis assay of the parasite using recombinant APOL1 protein variant followed by a fluorescent detection method of viability by the addition of AlamarBlue reagent to the assay well, a general metabolic redox indicator (AlamarBlue assay).
Briefly, the AlamarBlue active compound, the resazurin, a blue, water soluble, non-toxic and cell permeable molecule, which can be followed by absorbance, is reduced by various metabolic pathways into resorufin, a red compound which can be followed by either absorbance or fluorescence. The assay allows the calculation of the percent viability (percent of living Trypanosomes remaining in each well) at the end of a lysis relative to the untreated condition by interpolation of fluorescent values (FLU) on a standard curve with a known amount of seeded trypanosome/well.
Trypanosoma brucei brucei (ATCC, Cat. No. PRA-382) • Lister 427 VSG 221 bloodstream form.
Thaw/Expansion Media (ATCC Medium 2834 Modified HMI-9 Medium)
Assay Media (No Phenol Red/No FBS): Make on Day of Use
Hypoxanthine Stock (100×)-9 (10×)
Equipment • El-Clip Tip pipette 12 channel adjustable 2-125 μL, Cat. No. 4672070BT • ThermoFisher MultiDrop 384, Cat. No. 5840300 • Multidrop • Agilent Bravo, Cat. No. G5409A • Bravo • SpectraMax M5
Assay Ready Plates (ARPs) • ARPs comes in two formats: • […] final top concentration with a 2.5 fold dilution down. • […] final top concentration with a 3 fold dilution down. • Both have a 10 point Dose response. • 0.1% DMSO final in the Black Assay Plate. • Compounds are diluted 1000 fold in the Black Assay Plate. • Each plate is designed for 14 compounds in duplicate. • In the final Black Assay Plate:
Trypanosoma brucei brucei Culture
Step 2, Day 4 • Centrifuge at 800×g for 5 minutes at room temperature. • Resuspend in 1 mL media. • Make a 1:25 fold dilution (10 μL/240 μL media). • Count on a hemocytometer (after adding parasites). • Let sit for 1-2 minutes for the parasites to settle. • Count should be approximately 100 viable motile parasites/16 grid or approximately 25×10^6 parasites/flask. • Passage the parasites by adding 1×10^6 parasites/T75 flask in 20 mL media. • Passage the parasites by adding 2.33×10^6 parasites/T175 flask in 46.6 mL media. • For every T75 flask should make enough for approximately 1.5×384 well assay plates. • For every T175 flask should make enough for approximately 3.8×384 well assay plates.
Step 3, Day 6 • Centrifuge at 800×g for 5 minutes. • Resuspend in 3 mL assay media (No phenol red, no FBS) per 75 starting flask. • Resuspend in 7 mL assay media (No phenol red, no FBS) per 175 flask • Make a 1:25 fold dilution. • Count by hemocytometer. • Every T75 flask set up should have approximately 75×10^6 parasites/flask (verify doubling time=8.7 hrs±1 hr). • Every T175 flask set up should have approximately 175×10^6 parasites/flask (verify doubling time=8.7 hrs±1 hr). • Require 46×10^6 parasites per 384 well plate (at 120,000 parasites per well). Protocol B […]

SMILES | IC50 [nM]
CC(CO)NC(=O)[C@H]1C[C@H](c2c(-c3ccc(F)cc3)[nH]c3c(F)cc(F)cc32)C1 (mixture of isomers) [Compound 13] | < 250
CC(CO)N(C)C(=O)[C@H]1C[C@H](c2c(-c3ccc(F)cc3)[nH]c3c(F)cc(F)cc32)C1 (mixture of isomers) [Compound 193] | 250 to 1000
CC1(NC(=O)[C@H]2C[C@H](c3c(-c4ccc(F)cc4)[nH]c4c(F)cc(F)cc43)C2)CCNC1=O (mixture of isomers) [Compound 197] | < 250
CC(O)(CO)CNC(=O)[C@H]1C[C@H](c2c(-c3ccc(F)cc3)[nH]c3c(F)cc(F)cc32)C1 (mixture of isomers) [Compound 216] | > 1000
CC1(CO)CCN1C(=O)[C@H]1C[C@H](c2c(-c3ccc(F)cc3)[nH]c3c(F)cc(F)cc32)C1 (mixture of isomers) [Compound 218] | < 250
COCCNC(=O)[C@H]1C[C@H](c2c(-c3ccc(F)cc3)[nH]c3c(F)cc(F)cc32)C1 [Compound 12] | 250 to 1000
O=C(NCC(O)CO)[C@H]1C[C@H](c2c(-c3ccc(F)cc3)[nH]c3c(F)cc(F)cc32)C1 (stereo partly drawn) [Compound 14] | 250 to 1000
O=C(NC1CCOC1)[C@H]1C[C@H](c2c(-c3ccc(F)cc3)[nH]c3c(F)cc(F)cc32)C1 (stereo partly drawn) [Compound 15] | 250 to 1000
C[C@H](O)[C@@H](CO)NC(=O)[C@H]1C[C@H](c2c(-c3ccc(F)cc3)[nH]c3c(F)cc(F)cc32)C1 [Compound 16] | < 250
Cc1cc(NC(=O)[C@H]2C[C@H](c3c(-c4ccc(F)cc4)[nH]c4c(F)cc(F)cc43)C2)no1 [Compound 17] | 250 to 1000
COC1CC1NC(=O)[C@H]1C[C@H](c2c(-c3ccc(F)cc3)[nH]c3c(F)cc(F)cc32)C1 (stereo partly drawn) [Compound 18] | > 1000
O=C(N[C@@H]1CCOC1)[C@H]1C[C@H](c2c(-c3ccc(F)cc3)[nH]c3c(F)cc(F)cc32)C1 [Compound 19] | 250 to 1000
O=C(N[C@H]1C[C@H](O)C1)[C@H]1C[C@H](c2c(-c3ccc(F)cc3)[nH]c3c(F)cc(F)cc32)C1 [Compound 20] | 250 to 1000
Cn1ccc(NC(=O)[C@H]2C[C@H](c3c(-c4ccc(F)cc4)[nH]c4c(F)cc(F)cc43)C2)n1 [Compound 22] | 250 to 1000
O=C1NCCCC1NC(=O)[C@H]1C[C@H](c2c(-c3ccc(F)cc3)[nH]c3c(F)cc(F)cc32)C1 (stereo partly drawn) [Compound 23] | 250 to 1000
Cc1cnc(NC(=O)[C@H]2C[C@H](c3c(-c4ccc(F)cc4)[nH]c4c(F)cc(F)cc43)C2)o1 [Compound 24] | > 1000
O=C1CCC(NC(=O)[C@H]2C[C@H](c3c(-c4ccc(F)cc4)[nH]c4c(F)cc(F)cc43)C2)C(=O)N1 (stereo partly drawn) [Compound 26] | 250 to 1000
C[C@@H](NC(=O)[C@H]1C[C@H](c2c(-c3ccc(F)cc3)[nH]c3c(F)cc(F)cc32)C1)C(N)=O [Compound 28] | > 1000
CC(C)C(CO)NC(=O)[C@H]1C[C@H](c2c(-c3ccc(F)cc3)[nH]c3c(F)cc(F)cc32)C1 (stereo partly drawn) [Compound 29] | 250 to 1000
CC(C)CC(NC(=O)[C@H]1C[C@H](c2c(-c3ccc(F)cc3)[nH]c3c(F)cc(F)cc32)C1)C(N)=O (stereo partly drawn) [Compound 30] | > 1000
CC(C)(CO)NC(=O)[C@H]1C[C@H](c2c(-c3ccc(F)cc3)[nH]c3c(F)cc(F)cc32)C1 [Compound 31] | 250 to 1000
NC(=O)C(CO)NC(=O)[C@H]1C[C@H](c2c(-c3ccc(F)cc3)[nH]c3c(F)cc(F)cc32)C1 (stereo partly drawn) [Compound 32] | < 250
O=C(NCC(F)(F)F)[C@H]1C[C@H](c2c(-c3ccc(F)cc3)[nH]c3c(F)cc(F)cc32)C1 [Compound 33] | > 1000

SMILES | IC50 [nM]
O=C(NCCn1cccc1)[C@H]1C[C@H](c2c(-c3ccc(F)cc3)[nH]c3c(F)cc(F)cc32)C1 [Compound 34] | 250 to 1000
Cc1ccn(CCNC(=O)[C@H]2C[C@H](c3c(-c4ccc(F)cc4)[nH]c4c(F)cc(F)cc43)C2)n1 [Compound 35] | 250 to 1000
O=C(NCCn1cncn1)[C@H]1C[C@H](c2c(-c3ccc(F)cc3)[nH]c3c(F)cc(F)cc32)C1 [Compound 36] | < 250
Cc1cc(CNC(=O)[C@H]2C[C@H](c3c(-c4ccc(F)cc4)[nH]c4c(F)cc(F)cc43)C2)on1 [Compound 37] | 250 to 1000
Cn1cc(CNC(=O)[C@H]2C[C@H](c3c(-c4ccc(F)cc4)[nH]c4c(F)cc(F)cc43)C2)cn1 [Compound 38] | 250 to 1000
O=C(NCCn1cnnc1)[C@H]1C[C@H](c2c(-c3ccc(F)cc3)[nH]c3c(F)cc(F)cc32)C1 [Compound 39] | > 1000
CS(=O)(=O)CCNC(=O)[C@H]1C[C@H](c2c(-c3ccc(F)cc3)[nH]c3c(F)cc(F)cc32)C1 [Compound 40] | > 1000
O=C(NCc1nnco1)[C@H]1C[C@H](c2c(-c3ccc(F)cc3)[nH]c3c(F)cc(F)cc32)C1 [Compound 171] | < 250
Cc1nnc(CNC(=O)[C@H]2C[C@H](c3c(-c4ccc(F)cc4)[nH]c4c(F)cc(F)cc43)C2)o1 [Compound 172] | < 250
Cc1noc(CNC(=O)[C@H]2C[C@H](c3c(-c4ccc(F)cc4)[nH]c4c(F)cc(F)cc43)C2)n1 [Compound 173] | < 250
Cn1cncc1CNC(=O)[C@H]1C[C@H](c2c(-c3ccc(F)cc3)[nH]c3c(F)cc(F)cc32)C1 [Compound 174] | 250 to 1000
C[C@@H](O)CNC(=O)[C@H]1C[C@H](c2c(-c3ccc(F)cc3)[nH]c3c(F)cc(F)cc32)C1 [Compound 175] | 250 to 1000
O=C(NC[C@H](O)C(F)(F)F)[C@H]1C[C@H](c2c(-c3ccc(F)cc3)[nH]c3c(F)cc(F)cc32)C1 [Compound 176] | < 250
O=C(NC[C@@H](O)C(F)(F)F)[C@H]1C[C@H](c2c(-c3ccc(F)cc3)[nH]c3c(F)cc(F)cc32)C1 [Compound 177] | 250 to 1000
O=C(N[C@H]1CC[C@@H]1O)[C@H]1C[C@H](c2c(-c3ccc(F)cc3)[nH]c3c(F)cc(F)cc32)C1 [Compound 178] | 250 to 1000
O=C(N[C@@H]1CCC[C@@H]1O)[C@H]1C[C@H](c2c(-c3ccc(F)cc3)[nH]c3c(F)cc(F)cc32)C1 [Compound 179] | 250 to 1000
O=C(N[C@H]1CC[C@H]1O)[C@H]1C[C@H](c2c(-c3ccc(F)cc3)[nH]c3c(F)cc(F)cc32)C1 [Compound 181] | 250 to 1000
O=C(N[C@@H]1CCC[C@H]1O)[C@H]1C[C@H](c2c(-c3ccc(F)cc3)[nH]c3c(F)cc(F)cc32)C1 [Compound 182] | > 1000
O=C(NCC1(O)CC1)[C@H]1C[C@H](c2c(-c3ccc(F)cc3)[nH]c3c(F)cc(F)cc32)C1 [Compound 183] | 250 to 1000
O=C(N[C@H]1COC[C@@H]1O)[C@H]1C[C@H](c2c(-c3ccc(F)cc3)[nH]c3c(F)cc(F)cc32)C1 [Compound 184] | 250 to 1000
O=C(NCC1(O)COC1)[C@H]1C[C@H](c2c(-c3ccc(F)cc3)[nH]c3c(F)cc(F)cc32)C1 [Compound 185] | 250 to 1000
CC(CO)(CO)NC(=O)[C@H]1C[C@H](c2c(-c3ccc(F)cc3)[nH]c3c(F)cc(F)cc32)C1 [Compound 186] | < 250

Source: US12116343B2, “Inhibitors of APOL1 and methods of using same” (Vertex Pharmaceuticals Incorporated, priority 2020, dated 2024)
